The values below come from US9988371B2, “Benzimidazole analogues and related methods” (The Arizona Board of Regents, on Behalf of the University …, priority 2014, dated 2018).

Data set [1] concerns the target VEGFR2 (Homo sapiens, UniProt P35968). The experiment in a line: VEGFR2 biochemical assay. To be noted: exact potency beyond measurable limit. As to the method: Suitable screening assays for RET and VEGFR2 small molecule kinase inhibitors (from a kinase-directed fragment (KDF) library) were established. The RET kinase assay utilizes an EZ Reader Electrophoresis Mobility Chip Instrument (Caliper Life Science). In the assay, 2 nM recombinant RET enzyme (Invitrogen) is pre-incubated with a small molecule inhibitor or control buffer for 30 min to allow the Type-II kinase inhibitor to trap the DFG-out conformation to which the inhibitors bind. This class of inhibitors is indirectly competitive with ATP, and slow binding kinetics (low kd) allow the inhibitors to appear non-competitive and pseudo-irreversible in nature. Because of the non-competitive nature of these inhibitors, a more biologically relevant concentration of ATP substrate (200 μM) was incorporated in this assay. After 30 min of pre-incubation, a substrate mix containing […], 20 mM MgCl2 and 1.5 μM fluorescently labeled RET substrate peptide (Caliper LS, peptide 22; Perkin Elmer, USA) was added. The conversion level of the RET substrate peptide was then determined utilizing the EZ Reader instrument. Similarly, VEGFR2 and RET/V804M kinase assays have also been established using the same peptide substrate.
The VEGFR-2 assay was identical to the RET assay except that 1-2 nM recombinant VEGFR-2 was used instead of RET.

Data set [2] concerns intracellular signaling (SHC, MAPK, p70S6K and S6RP). The experiment in a line: In vivo target inhibition, RET phosphorylation and signaling in HRAS/G12V-induced tumors. Details: species or system nude mice. To be noted: 48 hr, 1.0 or 3.0 mg/kg daily. On the procedure: (§1) FIG. 9: Photographs of blots showing effects of Pz-1 on cellular phosphorylation events in tumors induced in nude mice (from FIG. 8) by injection of NIH3T3 fibroblasts transformed by RET/C634Y or HRAS/G12V. […] Some of the vehicle-treated tumors, at the end of the tumor growth experiment described in FIG. 8, were treated for 48 hr with different doses of Pz-1 (TR) or left untreated (NT). At the end of the treatment, 50 μg of tumor protein lysates were subjected to immunoblotting with anti-phospho-Y1062 (αp1062) and anti-phospho-905 (αpY905) RET antibodies, anti-phospho-MAPK (αpMAPK, T302/Y304), anti-phospho-SHC (αpSHC, Y317), anti-phospho-p70S6K (αpp70S6K, T389), anti-phospho-S6RP (αpS6RP, S235/S236), and anti-phospho-VEGFR2 (αpVEGFR2 pY1175) antibodies. The blots were normalized using anti-RET (αRET), anti-SHC (αSHC), anti-MAPK (αMAPK), anti-p70S6K (αp70S6K), anti-S6RP (αS6RP) or anti-VEGFR2 (αVEGFR2) antibodies.
(§2) Some of the vehicle-treated tumors, at the end of the tumor growth experiment reported in FIG. 8, were treated for 48 hr with different doses of Pz-1 (1.0 or 3.0 mg/kg daily) or left untreated. […]

The target of data set [3] is T1, VEGFR2 (Mus musculus, UniProt P35918).
T1 construct: from tissue; host or cells: subcutaneous tumours (NIH3T3 RET/C634Y or NIH3T3 HRAS/G12V) in BALB/c nu/nu mice
T1 sequence (P35918 20-1345): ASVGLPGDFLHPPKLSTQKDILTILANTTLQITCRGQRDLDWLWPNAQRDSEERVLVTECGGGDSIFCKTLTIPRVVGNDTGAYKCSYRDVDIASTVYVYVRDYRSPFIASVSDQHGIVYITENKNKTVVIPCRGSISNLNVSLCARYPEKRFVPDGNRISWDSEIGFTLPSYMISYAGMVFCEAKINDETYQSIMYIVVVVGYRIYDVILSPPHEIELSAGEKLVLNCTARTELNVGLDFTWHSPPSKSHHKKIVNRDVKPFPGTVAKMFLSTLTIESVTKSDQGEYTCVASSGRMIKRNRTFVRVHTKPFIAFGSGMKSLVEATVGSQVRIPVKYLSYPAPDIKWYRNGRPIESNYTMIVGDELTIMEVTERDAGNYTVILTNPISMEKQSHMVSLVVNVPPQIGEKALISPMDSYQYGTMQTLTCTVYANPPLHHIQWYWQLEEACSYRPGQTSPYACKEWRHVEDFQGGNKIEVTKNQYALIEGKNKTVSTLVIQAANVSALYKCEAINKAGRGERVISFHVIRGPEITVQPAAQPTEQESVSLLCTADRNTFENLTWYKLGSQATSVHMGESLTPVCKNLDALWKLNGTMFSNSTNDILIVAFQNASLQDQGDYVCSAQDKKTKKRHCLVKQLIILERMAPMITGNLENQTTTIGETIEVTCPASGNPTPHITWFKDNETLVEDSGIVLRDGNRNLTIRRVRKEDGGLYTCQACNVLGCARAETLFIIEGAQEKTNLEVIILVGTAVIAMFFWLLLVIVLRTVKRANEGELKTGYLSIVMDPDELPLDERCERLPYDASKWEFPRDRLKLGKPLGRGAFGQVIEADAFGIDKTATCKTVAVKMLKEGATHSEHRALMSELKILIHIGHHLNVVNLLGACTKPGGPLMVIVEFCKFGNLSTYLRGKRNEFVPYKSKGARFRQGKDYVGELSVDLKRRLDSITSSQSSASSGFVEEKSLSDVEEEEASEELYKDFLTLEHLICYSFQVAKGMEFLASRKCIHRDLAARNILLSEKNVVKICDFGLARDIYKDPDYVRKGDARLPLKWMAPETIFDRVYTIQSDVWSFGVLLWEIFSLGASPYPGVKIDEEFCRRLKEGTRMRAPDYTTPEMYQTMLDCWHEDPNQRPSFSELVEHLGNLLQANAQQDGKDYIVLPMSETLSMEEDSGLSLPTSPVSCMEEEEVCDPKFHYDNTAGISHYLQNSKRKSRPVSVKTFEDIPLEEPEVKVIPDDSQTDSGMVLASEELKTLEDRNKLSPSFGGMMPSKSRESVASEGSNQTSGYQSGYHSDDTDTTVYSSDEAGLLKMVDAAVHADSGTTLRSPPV
Briefly: In vivo target inhibition, pVEGFR2 in RET/C634Y-induced tumors. The arrangement: species or system nude mice. To be noted: 48 hr, 1.0 or 3.0 mg/kg daily. As to the method: as §1, §2

Data set [4] concerns the target T1, VEGFR2. The experiment in a line: In vivo target inhibition, pVEGFR2 in HRAS/G12V-induced tumors. Details: species or system nude mice. To be noted: 48 hr, 1.0 or 3.0 mg/kg daily. As to the method:
as §1, §2

Data set [5] deals with LC-2/ad cells (NSCLC expressing CCDC6-RET). Briefly: Growth curve proliferation assay, LC-2/ad cells. Type of data set: cell-based. To be noted: Homo sapiens, last day of growth curves. As to the method:
FIG. 5: Effects exerted by indicated concentrations of Pz-1 or vehicle (NT: not treated) on proliferation of TT (human MTC cell line expressing RET/C634W), Lc-2/ad (human NSCLC expressing CCDC6-RET) and Nthy-ori-3-1 (thyroid non-transformed) cell lines. Data are the mean±SD (Standard Deviation) of one experiment performed in triplicate. Bottom, right) Growth inhibition IC50 of Pz-1 for the different cell lines: 95% CI (confidence intervals) are indicated in brackets. Cells were seeded in triplicate in 60-mm dishes and kept in 5% (Nthy-ori-3-1) or 10% (TT and Lc-2/ad) fetal calf serum. The day after plating, different concentrations of Pz-1 or vehicle were added to the medium and changed every 2-3 days. Cells were counted every 2-3 days and cell numbers were reported±SD (Standard Deviation). IC50 doses (with Confidence Intervals) were calculated through a curve fitting analysis from the last day of growth curves using the PRIZM software program (Graphpad Software Inc).
Nthy-ory-3-1 and TTcells were seeded in 60-mm dishes. […] Cells were counted every 2-3 days. […] Parental and RET/PTC-expressing Ba/F3 were kept in 10% fetal calf serum in 6-multi wells and counted every day for 4 consecutive days, changing media every 2 days. […] IC50 doses were calculated through a curve fitting analysis from the last day of growth curves using the PRISM software program (Graphpad Software Inc). […]

The target of the next data set is CYP3A4 (Homo sapiens, UniProt P08684). Briefly: CYP inhibition. Type of data set: in vitro ADME. To be noted: read-out: CYP 3A4 IC50.
Chain of CYP3A4 (P08684 whole entry): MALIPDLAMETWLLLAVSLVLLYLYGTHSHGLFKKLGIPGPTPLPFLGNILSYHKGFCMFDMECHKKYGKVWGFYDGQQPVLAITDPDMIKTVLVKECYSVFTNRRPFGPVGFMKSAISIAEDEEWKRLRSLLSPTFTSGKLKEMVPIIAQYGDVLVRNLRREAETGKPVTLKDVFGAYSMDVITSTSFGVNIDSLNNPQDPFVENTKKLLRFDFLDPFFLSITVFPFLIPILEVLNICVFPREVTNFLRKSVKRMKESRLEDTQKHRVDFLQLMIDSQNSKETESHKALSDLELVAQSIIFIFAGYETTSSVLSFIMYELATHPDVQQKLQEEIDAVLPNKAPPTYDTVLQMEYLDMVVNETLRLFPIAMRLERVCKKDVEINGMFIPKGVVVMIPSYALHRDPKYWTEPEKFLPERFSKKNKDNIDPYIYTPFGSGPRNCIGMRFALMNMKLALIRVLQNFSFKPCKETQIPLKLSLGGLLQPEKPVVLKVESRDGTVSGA
Another data set has as its target CYP2D6 (Homo sapiens, UniProt P10635). Briefly: CYP inhibition. Type of data set: in vitro ADME. To be noted: read-out: CYP 2D6 IC50.

As usually defined, the IC50 is the point on the concentration scale where inhibition reaches its midpoint.

Chain of VEGFR2 (Homo sapiens, UniProt P35968) (P35968 834-1162 limits assumed): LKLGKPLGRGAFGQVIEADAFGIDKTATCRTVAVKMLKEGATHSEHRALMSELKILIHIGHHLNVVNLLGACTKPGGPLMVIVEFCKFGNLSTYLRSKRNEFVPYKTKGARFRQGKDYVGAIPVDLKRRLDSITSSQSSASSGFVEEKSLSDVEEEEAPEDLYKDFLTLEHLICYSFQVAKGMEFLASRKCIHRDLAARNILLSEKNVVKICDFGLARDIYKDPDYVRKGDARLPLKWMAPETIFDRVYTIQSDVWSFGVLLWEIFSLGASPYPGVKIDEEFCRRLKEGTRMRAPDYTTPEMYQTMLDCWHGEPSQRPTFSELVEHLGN
Chain of CYP2D6 (P10635 whole entry): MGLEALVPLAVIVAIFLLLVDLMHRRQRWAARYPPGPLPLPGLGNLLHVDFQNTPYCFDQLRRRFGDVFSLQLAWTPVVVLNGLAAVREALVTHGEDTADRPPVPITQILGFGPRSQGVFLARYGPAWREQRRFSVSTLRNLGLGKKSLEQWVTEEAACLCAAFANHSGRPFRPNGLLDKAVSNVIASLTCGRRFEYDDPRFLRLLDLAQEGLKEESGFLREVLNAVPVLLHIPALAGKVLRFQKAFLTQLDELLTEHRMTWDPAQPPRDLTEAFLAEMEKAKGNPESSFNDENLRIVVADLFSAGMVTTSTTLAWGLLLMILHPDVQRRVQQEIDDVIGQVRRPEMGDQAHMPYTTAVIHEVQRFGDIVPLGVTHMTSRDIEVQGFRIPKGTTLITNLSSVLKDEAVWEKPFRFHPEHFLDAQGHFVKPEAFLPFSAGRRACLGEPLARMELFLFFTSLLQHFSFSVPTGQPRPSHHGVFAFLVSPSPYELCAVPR

With `Cn1cc(-c2ccc3c(c2)ncn3-c2ccc(CC(=O)Nc3cc(C(C)(C)C)on3)cc2)cn1` [Pz-1, N-(5-(tert-butyl)isoxazol-3-yl)-2-(4-(5-(1-methyl-1H-pyrazol-4-yl)-1H-benzo[d]imidazol-1-yl)phenyl)acetamide], the IC50 at VEGFR2 [1] was less than 0.001 µM; in data set [5], 0.000907 µM; on CYP3A4, 7.4 µM; on CYP2D6 it was 13.8 µM. The “RET phosphorylation and intracellular signaling (SHC, MAPK, p70S6K and S6RP) in tumors” value in data set [2] is “only in RET/C634Y-induced tumors”. Further, the pVEGFR2 in tumors result on VEGFR2 [3] and on VEGFR2 [4] was “inhibited” in each case.
